Laboratory results: patent publication US20250326748A1, “COMPOUNDS AND METHODS FOR MODULATING SPLICING” (REMIX THERAPEUTICS INC., priority 2022, published 2025)
Like-named read-outs stand apart in the source and are kept apart here.

What was measured:
Assay type in all cases: cell-based, human
[1] = tested on: HiBiT-tagged HTT protein; assay: HiBiT protein abundance assay, HTT (K562 HiBiT knock-in); settings: HiBiT knock-in cells, 24 hours
Method in brief: (§1)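 Endogenously HiBiT-tagged K562 knock-in lines treated 24 h at 37 °C with 10-point 3-fold dilutions (top 10 μM final, DMSO ≤0.25%) in IMDM+1% FBS. Lytic Nano-Glo luminescence normalized to DMSO and unmodified K562 controls; four-parameter fit gives 50%-abundance concentration (IC50).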

[2] = tested on: HTT mRNA; assay: Splicing RT-qPCR assay, HTT canonical (CJ) and alternative (AJ) junction mRNA; settings: Homo sapiens; for IC50: canonical junction mRNA; for AC50: alternative junction mRNA, read-out: HTT AJ (AC50, increase in AJ mRNA)
Method in brief: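 Read-out: one-step RT-qPCR on crude lysates measuring exon-exon junction isoforms, CJ for the canonical transcript and AJ for compound-induced exon inclusion. Normalization used PPIA for adherent A673 and GAPDH or GUSB for K562. Cells received 11 doses, 3-fold apart, top 10 uM, for 24 h.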

[3] = tested on: HiBiT-tagged MYB protein; assay: HiBiT protein abundance assay, MYB (K562 HiBiT knock-in); settings: HiBiT knock-in cells, 24 hours
Method in brief: as §1

[4] = 24 h, RT-qPCR, A673 or K562 cells, 24 hours treatment, read-out: HTT CJ (IC50, decrease in CJ mRNA)
[5] = qPCR panel, read-out: HTT CJ (decrease in CJ mRNA levels, IC50)
[6] = RT-qPCR, A673 or K562 cells, 24 hours treatment

Structure (SMILES) | IC50 [1] | IC50 [2, 4] | IC50 [2, 5] | AC50 [2, 6] | IC50 [3]
Cc1cn2nc(-c3cc(Cl)c4cc(N5CCC(N6CCC6)CC5)cnc4n3)cc(C)c2n1 [Compound 349] | 100 to 1000 nM | 100 to 1000 nM | 100 to 1000 nM | 100 to 1000 nM | < 100 nM
C[C@@H]1CN(c2cnc3nc(-c4cc(C#N)c5nn(C)cc5c4)cc(Cl)c3c2)C[C@H](C)N1 [Compound 325, 5-(4-chloro-6-((3R,5S)-3,5-dimethylpiperazin-1-yl)-1,8-naphthyridin-2-yl)-2-methyl-2H-indazole-7-carbonitrile 2,2,2-trifluoroacetate] | 1000 to 10000 nM | > 10000 nM | > 10000 nM | > 10000 nM | 100 to 1000 nM
Cc1c(O)c(-c2cc(Cl)c3cc(N4CCC(N(C)C)C4)cnc3n2)cc2cn(C)nc12 (stereo not drawn) [Compound 143, 5-{4-chloro-6-[3-(dimethylamino)357pyrrolidine-1-yl]-1,8-naphthyridin-2-yl}-2,7-dimethylindazol-6-ol] | 100 to 1000 nM | 100 to 1000 nM | 100 to 1000 nM | 100 to 1000 nM | < 100 nM
